From US20090270435A1 (priority 2006, published 2009)
Counter-ions that a name gives are not always drawn.

biological target: T1, ACC1 from rat liver (Rattus norvegicus, UniProt P11497); test: Direct inhibition of ACC1 activity (14C-bicarbonate incorporation); type: biochemical; settings: ACC1 from rat liver
T1 construct: The livers (for ACC1 preparation) or skeletal muscle tissue (for ACC2 preparation) are removed; from tissue; host or cells: liver of male CD rats (fasted, then fed a high sucrose diet)
Summary of the method: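 ACC1 partially purified from livers of fasted/sucrose-refed male rats by PEG and ammonium sulfate fractionation, then preincubated 30 min at 37°C with 10 mM citrate and 1.0 mM MgCl2. Reaction ran 7 min at 37°C, stopped with HCl; acid-stable radioactivity counted by scintillation; HCl-first tubes served as blanks.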

Structure (SMILES)	IC50 [µM]
Cc1cc2c(cc1C)C(=O)CC1(CCN(C(=O)c3ccc4nc[nH]c4c3)CC1)O2 [Ex. L22, 1′-(1H-benzimidazol-5-ylcarbonyl)-6,7-dimethylspiro[chromene-2,4′-piperidin]-4(3H)-one trifluoroacetic acid salt]	0.164
Cc1cc2c(cc1C)C(=O)CC1(CCN(C(=O)c3ccc4c(c3)ncn4C)CC1)O2 [Ex. L23, 6,7-dimethyl-1′-[(1-methyl-1H-benzimidazol-5-yl)carbonyl]spiro[chromene-2,4′-piperidin]-4(3H)-one trifluoroacetic acid salt]	1.17
Cc1nc2cc(C(=O)N3CCC4(CC3)CC(=O)c3cc(C)c(C)cc3O4)ccc2[nH]1 [Ex. L24, 6,7-dimethyl-1′-[(2-methyl-1H-benzimidazol-5-yl)carbonyl]spiro[chromene-2,4′-piperidin]-4(3H)-one trifluoroacetic acid salt]	0.825
Cc1cc2c(cc1C)C(=O)CC1(CCN(C(=O)c3ccc4[nH]c(C(F)(F)F)nc4c3)CC1)O2 [Ex. L25, 6,7-dimethyl-1′-{[2-(trifluoromethyl)-1H-benzimidazol-5-yl]carbonyl}spiro[chromene-2,4′-piperidin]-4(3H)-one trifluoroacetic acid salt]	0.613
Cc1cc2c(cc1C)C(=O)CC1(CCN(C(=O)c3ccc4[nH]c(-c5ccccn5)nc4c3)CC1)O2 [Ex. L26, 6,7-dimethyl-1′-[(2-pyridin-2-yl-1H-benzimidazol-5-yl)carbonyl]spiro[chromene-2,4′-piperidin]-4(3H)-one trifluoroacetic acid salt]	0.0635
COc1c(C(=O)N2CCC3(CC2)CC(=O)c2cc(C)c(C)cc2O3)cc(Cl)c2nc(C)[nH]c12 [Ex. L27, 1′-[(4-chloro-7-methoxy-2-methyl-1H-benzimidazol-6-yl)carbonyl]-6,7-dimethylspiro[chromene-2,4′-piperidin]-4(3H)-one]	> 1
Cc1cc2c(cc1C)C(=O)CC1(CCN(C(=O)c3ccc4c(c3)nc(C)n4C)CC1)O2 [Ex. L28, 1′-[(1,2-dimethyl-1H-benzimidazol-5-yl)carbonyl]-6,7-dimethylspiro[chromene-2,4′-piperidin]-4(3H)-one]	3.15
Cc1cc2c(cc1C)C(=O)CC1(CCN(C(=O)c3ccc4c(c3)nc(N3CCCC3)n4C)CC1)O2 [Ex. L29, 6,7-dimethyl-1′-[(1-methyl-2-pyrrolidin-1-yl-1H-benzimidazol-5-yl)carbonyl]spiro[chromene-2,4′-piperidin]-4(3H)-one]	0.13
CCc1nc2cc(C(=O)N3CCC4(CC3)CC(=O)c3ccccc3O4)ccc2n1-c1cccc(OC)c1 [Ex. L30, 1′-{[2-ethyl-1-(3-methoxyphenyl)-1H-benzimidazol-5-yl]carbonyl}spiro[chromene-2,4′-piperidin]-4(3H)-one]	0.39
CCc1nc2cc(C(=O)N3CCC4(CC3)CC(=O)c3c(OC)cccc3O4)ccc2n1-c1cccc(OC)c1 [Ex. L31, 1′-{[2-ethyl-1-(3-methoxyphenyl)-1H-benzimidazol-5-yl]carbonyl}-5-methoxyspiro[chromene-2,4′-piperidin]-4(3H)-one]	1.14
Cc1cc2c(cc1C)C(=O)CC1(CCN(C(=O)c3ccc4c(c3)[nH]c(=O)n4C)CC1)O2 [Ex. L32, 6,7-dimethyl-1′-[(1-methyl-2-oxo-2,3-dihydro-1H-benzimidazol-5-yl)carbonyl]spiro[chromene-2,4′-piperidin]-4(3H)-one]	0.19
Cc1cc2c(cc1C)C(=O)CC1(CCN(C(=O)c3ccc4nc[nH]c4c3)CC1)O2 [Ex. L33, 1′-(1H-benzimidazol-6-ylcarbonyl)-6,7-dimethylspiro[chromene-2,4′-piperidin]-4(3H)-one]	0.0999
O=C1CC2(CCN(C(=O)c3ccc4nc[nH]c4c3)CC2)Oc2ccc(Cl)cc21 [Ex. L34]	> 1
COc1cccc2c1C(=O)CC1(CCN(C(=O)c3ccc4nc(-c5ccccc5)[nH]c4c3)CC1)O2 [Ex. L35, 5-methoxy-1′-[(2-phenyl-1H-benzimidazol-6-yl)-carbonyl]spiro[chromene-2,4′-piperidin]-4(3H)-one]	0.0155
Cc1cc2c(cc1C)C(=O)CC1(CCN(C(=O)c3ccc4nc(-c5ccncc5)[nH]c4c3)CC1)O2 [Ex. L36, 6,7-dimethyl-1′-[(2-pyridin-4-yl-1H-benzimidazol-6-yl)carbonyl]spiro[chromene-2,4′-piperidin]-4(3H)-one trifluoroacetic acid salt]	0.0507
Cc1cc2c(cc1C)C(=O)CC1(CCN(C(=O)c3ccc4[nH]nnc4c3)CC1)O2 [Ex. L37, 1′-(1H-1,2,3-benzotriazol-5-ylcarbonyl)-6,7-dimethylspiro[chromene-2,4′-piperidin]-4(3H)-one]	0.151
O=C1CC2(CCN(C(=O)c3ccc4[nH]nnc4c3)CC2)Oc2ccc(Cl)cc21 [Ex. L38, 1′-(1H-1,2,3-benzotriazol-5-ylcarbonyl)-6-chlorospiro[chromene-2,4′-piperidin]-4(3H)-one]	< 1
Cc1cc2c(cc1C)C(=O)CC1(CCN(C(=O)c3ccc4[nH]nnc4c3)CC1)O2 [Ex. L39, 1′-(1H-1,2,3-benzotriazol-5-ylcarbonyl)-6,7-dimethylspiro[chromene-2,4′-piperidin]-4(3H)-one trifluoroacetic acid salt]	0.362
Cc1cc2c(cc1Cl)C(=O)CC1(CCN(C(=O)c3ccc4[nH]nnc4c3)CC1)O2 [Ex. L40, 1′-(1H-1,2,3-benzotriazol-5-ylcarbonyl)-6-chloro-7-methylspiro[chromene-2,4′-piperidin]-4(3H)-one]	4.86
Cc1cc2c(cc1C)C(=O)CC1(CCN(C(=O)c3ccc4c(c3)nnn4C)CC1)O2 [Ex. L41, 6,7-dimethyl-1′-[(1-methyl-1H-1,2,3-benzotriazol-5-yl)carbonyl]spiro[chromene-2,4′-piperidin]-4(3H)-one]	< 3
CC(C)n1nnc2cc(C(=O)N3CCC4(CC3)CC(=O)c3cc(Cl)ccc3O4)ccc21 [Ex. L42, 6-chloro-1′-[(1-isopropyl-1H-1,2,3-benzotriazol-5-yl)carbonyl]spiro[chromene-2,4′-piperidin]-4(3H)-one]	> 1
Cc1cc2c(cc1C)C(=O)CC1(CCN(C(=O)c3ccc4ncccc4c3)CC1)O2 [Ex. L43, 6,7-dimethyl-1′-(quinolin-6-ylcarbonyl)spiro[chromene-2,4′-piperidin]-4(3H)-one trifluoroacetic acid salt]	0.121
Cc1cc2c(cc1C)C(=O)CC1(CCN(C(=O)c3ccc4nccnc4c3)CC1)O2 [Ex. L45, 6,7-dimethyl-1′-(quinoxalin-6-ylcarbonyl)spiro[chromene-2,4′-piperidin]-4(3H)-one]	< 3
Cc1cc2c(cc1Cl)C(=O)CC1(CCN(C(=O)c3ccc4ocnc4c3)CC1)O2 [Ex. L46, 1′-(1,3-benzoxazol-5-ylcarbonyl)-6-chloro-7-methylspiro[chromene-2,4′-piperidin]-4(3H)-one]	0.369

same assay, conditions: Table of Examples M1-M36

Structure (SMILES)	IC50 [µM]
COc1cc(C)cc2c1C(=O)CC1(CCN(C(=O)c3cccc(-c4cc[nH]n4)c3)CC1)O2 [Ex. M1, 5-methoxy-7-methyl-1′-[3-(1H-pyrazol-3-yl)benzoyl]spiro[chromene-2,4′-piperidin]-4(3H)-one]	0.0375
Cc1cc2c(cc1C)C(=O)CC1(CCN(C(=O)c3cccc(-c4cc[nH]n4)c3)CC1)O2 [Ex. M2, 6,7-dimethyl-1′-[3-(1H-pyrazol-3-yl)benzoyl]spiro[chromene-2,4′-piperidin]-4(3H)-one]	0.0736
CNC(=O)c1ccc2c(c1)C(=O)CC1(CCN(C(=O)c3cccc(-c4cc[nH]n4)c3)CC1)O2 [Ex. M4, N-methyl-4-oxo-1′-[3-(1H-pyrazol-3-yl)benzoyl]-3,4-dihydrospiro[chromene-2,4′-piperidine]-6-carboxamide]	0.11
NC(=O)c1ccc2c(c1)C(=O)CC1(CCN(C(=O)c3cccc(-c4cc[nH]n4)c3)CC1)O2 [Ex. M5, 4-oxo-1′-[3-(1H-pyrazol-3-yl)benzoyl]-3,4-dihydrospiro[chromene-2,4′-piperidine]-6-carboxamide]	0.118
COc1ccc2c(c1)C(=O)CC1(CCN(C(=O)c3cccc(-c4cc[nH]n4)c3)CC1)O2 [Ex. M6, 6-methoxy-1′-[3-(1H-pyrazol-3-yl)benzoyl]spiro[chromene-2,4′-piperidin]-4(3H)-one]	0.129
Cc1cc2c(cc1Cl)OC1(CCN(C(=O)c3cccc(-c4cc[nH]n4)c3)CC1)CC2=O [Ex. M7, 7-chloro-6-methyl-1′-[3-(1H-pyrazol-3-yl)benzoyl]spiro[chromene-2,4′-piperidin]-4(3H)-one]	0.14
O=C1CC2(CCN(C(=O)c3cccc(-c4cc[nH]n4)c3)CC2)Oc2cc(Cl)c(Cl)cc21 [Ex. M8, 6,7-dichloro-1′-[3-(1H-pyrazol-3-yl)benzoyl]spiro[chromene-2,4′-piperidin]-4(3H)-one]	0.178
O=C1CC2(CCN(C(=O)c3cccc(-c4cc[nH]n4)c3)CC2)Oc2ccc(C(=O)N3CCCC3)cc21 [Ex. M9, 1′-[3-(1H-pyrazol-3-yl)benzoyl]-6-(pyrrolidin-1-ylcarbonyl)spiro[chromene-2,4′-piperidin]-4(3H)-one]	0.179
Cc1cc2c(cc1Br)C(=O)CC1(CCN(C(=O)c3cccc(-c4cc[nH]n4)c3)CC1)O2 [Ex. M10, 6-bromo-7-methyl-1′-[3-(1H-pyrazol-3-yl)benzoyl]spiro[chromene-2,4′-piperidin]-4(3H)-one]	0.201
COC(=O)c1ccc2c(c1)C(=O)CC1(CCN(C(=O)c3cccc(-c4cc[nH]n4)c3)CC1)O2 [Ex. M11, methyl 4-oxo-1′-[3-(1H-pyrazol-3-yl)benzoyl]-3,4-dihydrospiro[chromene-2,4′-piperidine]-6-carboxylate]	0.202
Cc1ccc2c(c1)OC1(CCN(C(=O)c3cccc(-c4cc[nH]n4)c3)CC1)CC2=O [Ex. M12, 7-methyl-1′-[3-(1H-pyrazol-3-yl)benzoyl]spiro[chromene-2,4′-piperidin]-4(3H)-one]	0.205
